# Measurements from patent US20260177565A1, “INHIBITOR FOR GLUCOSE UPTAKE INTO RED BLOOD CELLS, SUPPRESSANT FOR GLUCOSE CONCENTRATION REDUCTION IN BLOOD-COLLECTING TUBE, AND BLOOD-COLLECTING TUBE INCLUDING SAME” (THE UNIVERSITY OF TOKYO, priority 2022, published 2026).
# “Also recorded” adds a separate entry of the source.
# System: red blood cells
# Assay: Fluorescently labeled glucose uptake into red blood cells (Glucose Uptake Assay Kit-Green)
# Type: cell-based, human
# Conditions: for uptake of fluorescently labeled glucose / fluorescence in red blood cells (in words): concentrations as in Table 5; for Fluorescence intensity of fluorescently labeled glucose uptake into red blood cells: control (PBS(−)) 613.5
# Description: Blood collected in the blood collection tube B from a volunteer subject was centrifuged at 3000 rpm for 5 minutes within 10 minutes, and plasma was discarded to obtain fresh red blood cells. The red blood cells were washed with PBS(−) and used for the following tests (washed red blood cells).
# The test substance was dissolved in the amount described in Table 5 with respect to 1 mL of PBS(−). On the other hand, 5 μL of washed red blood cells immersed in PBS(−) and allowed to stand for about 15 minutes were taken out into a test tube, 150 μL each of a test substance solution was added thereto, and this was heated at 37° C. for 15 minutes. Then, 2 μL of a dissolved probe reagent in a glucose uptake assay kit (Glucose Uptake Assay Kit-Green, Dojindo Laboratories Co., Ltd.) was added and heated at 37° C. for 45 minutes. The probe reagent was fluorescently labeled glucose (fluorescently labeled glucose), and a powdered reagent dissolved in 20 μL of DMSO was used.
# After the immersion in the reagents of the glucose uptake assay was completed, red blood cells were washed 3 times with 150 μL of a cooled 50-fold diluted WI solution (prepared by diluting the solution provided with the assay reagent 50-fold with PBS(−) at 4° C.), and 150 μL of a cooled 50-fold diluted WI solution was further added and stirred, and then 20 μL of the solution was dropped onto a glass slide and spread over the slide. Slides were photographed with fluorescence microscope.
# The remaining red blood cells were centrifuged to discard the supernatant, and 125 μL of water for injection was added to the remaining lower red blood cells to cause hemolysis. The fluorescence intensity of 100 μL of the supernatant obtained by centrifugation was measured using a microplate reader (MTP-800Lab, Corona Electric Co., Ltd.). The measurement conditions were an excitation light wavelength of […] and a measurement fluorescence wavelength of […].
Structure (SMILES),uptake of fluorescently labeled glucose / fluorescence in red blood cells (in words),Fluorescence intensity of fluorescently labeled glucose uptake into red blood cells (test substance 1.25 mg/mL in PBS(−)),Fluorescence intensity of fluorescently labeled glucose uptake into red blood cells (test substance 2 mg/mL in PBS(−)),Fluorescence intensity of fluorescently labeled glucose uptake into red blood cells (test substance 1.5 mg/mL in PBS(−))
"Nc1ncnc2c1ncn2[C@@H]1O[C@H](COP(=O)(O)OP(=O)(O)OP(=O)(O)O)[C@@H](O)[C@H]1O [ATP, adenosine triphosphate]",the degree of suppression of uptake was much lower than that of inosine,163.3,–,–
"OC[C@H]1O[C@@H](n2cnc3c(O)ncnc32)[C@H](O)[C@@H]1O [Inosine, inosine]",fluorescence in red blood cells was hardly observed; also recorded: strong inhibitory effect on the uptake of glucose in red blood cells,–,6.4,–
"[F-].[Na+] [Sodium fluoride, sodium fluoride]",the degree of suppression of uptake was much lower than that of inosine,–,–,255.1
